Each compound was assayed against T1, human FASN (Homo sapiens, UniProt P49327) (assay: FASN NADPH Consumption Assay). Details: human FASN purified from SKBR3 cells; starred symbols.
T1 construct: was purified from SKBR3 cells using procedures modified from those in Jayakumar et al; endogenous in cells; host or cells: SKBR3 human breast cancer cells (ATCC); Endogenous enzyme purified by ammonium sulfate precipitation and a mono Q column
Type: biochemical
Procedure: Human FASN protein (SEQ ID NO. 1) was purified from SKBR3 cells using procedures modified from those in Jayakumar et al. PNAS 1995, 92:8695-8699. SKBR3 cells were obtained from ATCC and grown in DMEM high glucose medium supplemented with 10% FBS, 1 μg/mL bovine pancreas insulin, 100 U/mL penicillin and 100 µg/mL streptomycin. The confluent cells were trypsinized and washed three times with PBS buffer before frozen in liquid N2 and stored at −80° C. Frozen cells were thawed on ice and resuspended in lysis buffer (25 mM Tris-HCl, pH 7.0, 15 mM NaCl, 1 mM EDTA, and 1 mM DTT) with protease inhibitors. The cells were lysed by sonication, and the cell debris was removed by centrifugation at 20,000 rpm for 30 min. To the supernatant, neutralized saturated ammonium sulfate solution was added to a final concentration of 35%. The solution was left on ice for 1 hr, and the precipitated proteins were harvested by centrifugation at 20,000 rpm for 30 min. The proteins were redissolved in lysis buffer without NaCl and loaded on a mono Q column. Bound proteins were eluted with a linear gradient of NaCl in lysis buffer. Each fraction was analyzed by SDS-PAGE and FASN NADPH consumption assay. The fractions containing FASN were pooled and concentrated to 2-3 mg/mL. Glycerol was added to 20%, and the protein was frozen in liquid N2 and stored at −80° C.
All chemicals were purchased from Sigma (St. Louis, Mo.). The procedures of NADPH consumption assay were similar to those described in Cox et al., PNAS 1983, 80:4233-4237. On a 96-well polypropylene microplate, dilution series (typical concentrations 60 nM-1.0 mM) of test compounds were prepared in DMSO, of which 4.0 μL each was transferred to a black polystyrene assay microplate and mixed with 36 μL FASN assay buffer (50 mM potassium phosphate, pH 7.0, 1.0 mM EDTA, 0.01% NP-40) plus 5.0 mM fresh DTT. FASN protein (40 μL 150 nM FASN) was added per well, and the microplate was incubated at 37° C. for 30 min. Enzyme activity measurement was initiated by addition of 20 μL 5× substrate mixture to final concentrations of 60 nM FASN, 2.4 nM-40 μM compound, 0.2 mM NADPH, 50 μM butyryl-CoA, 0.5 mM malonyl-CoA in 100 μL assay buffer plus 5.0 mM DTT and 4.0% DMSO. NADPH consumption was monitored kinetically by fluorescence (λEx=340 nm, λEm=460 nm) on an EnVision 2100 multilabel plate reader (Perkin Elmer, Waltham, Mass.). FASN enzyme activity (slope) in the presence of 4% DMSO was used as maximum control, whereas background (minimum control) was measured by omission of malonyl-CoA in the substrate mixture. Inhibition curves were fitted by a logistic function to yield IC50 values:
Compounds were assayed as inhibitors of human FASN using the above-described FASN Scintillation Proximity Flashplate Assay (IC50; nM) or FASN NADPH Consumption Assay (*) (IC50; nM). The corresponding activity of the isolated compound is also provided along with the measured mass (ES^+).

T1 sequence (P49327 whole entry): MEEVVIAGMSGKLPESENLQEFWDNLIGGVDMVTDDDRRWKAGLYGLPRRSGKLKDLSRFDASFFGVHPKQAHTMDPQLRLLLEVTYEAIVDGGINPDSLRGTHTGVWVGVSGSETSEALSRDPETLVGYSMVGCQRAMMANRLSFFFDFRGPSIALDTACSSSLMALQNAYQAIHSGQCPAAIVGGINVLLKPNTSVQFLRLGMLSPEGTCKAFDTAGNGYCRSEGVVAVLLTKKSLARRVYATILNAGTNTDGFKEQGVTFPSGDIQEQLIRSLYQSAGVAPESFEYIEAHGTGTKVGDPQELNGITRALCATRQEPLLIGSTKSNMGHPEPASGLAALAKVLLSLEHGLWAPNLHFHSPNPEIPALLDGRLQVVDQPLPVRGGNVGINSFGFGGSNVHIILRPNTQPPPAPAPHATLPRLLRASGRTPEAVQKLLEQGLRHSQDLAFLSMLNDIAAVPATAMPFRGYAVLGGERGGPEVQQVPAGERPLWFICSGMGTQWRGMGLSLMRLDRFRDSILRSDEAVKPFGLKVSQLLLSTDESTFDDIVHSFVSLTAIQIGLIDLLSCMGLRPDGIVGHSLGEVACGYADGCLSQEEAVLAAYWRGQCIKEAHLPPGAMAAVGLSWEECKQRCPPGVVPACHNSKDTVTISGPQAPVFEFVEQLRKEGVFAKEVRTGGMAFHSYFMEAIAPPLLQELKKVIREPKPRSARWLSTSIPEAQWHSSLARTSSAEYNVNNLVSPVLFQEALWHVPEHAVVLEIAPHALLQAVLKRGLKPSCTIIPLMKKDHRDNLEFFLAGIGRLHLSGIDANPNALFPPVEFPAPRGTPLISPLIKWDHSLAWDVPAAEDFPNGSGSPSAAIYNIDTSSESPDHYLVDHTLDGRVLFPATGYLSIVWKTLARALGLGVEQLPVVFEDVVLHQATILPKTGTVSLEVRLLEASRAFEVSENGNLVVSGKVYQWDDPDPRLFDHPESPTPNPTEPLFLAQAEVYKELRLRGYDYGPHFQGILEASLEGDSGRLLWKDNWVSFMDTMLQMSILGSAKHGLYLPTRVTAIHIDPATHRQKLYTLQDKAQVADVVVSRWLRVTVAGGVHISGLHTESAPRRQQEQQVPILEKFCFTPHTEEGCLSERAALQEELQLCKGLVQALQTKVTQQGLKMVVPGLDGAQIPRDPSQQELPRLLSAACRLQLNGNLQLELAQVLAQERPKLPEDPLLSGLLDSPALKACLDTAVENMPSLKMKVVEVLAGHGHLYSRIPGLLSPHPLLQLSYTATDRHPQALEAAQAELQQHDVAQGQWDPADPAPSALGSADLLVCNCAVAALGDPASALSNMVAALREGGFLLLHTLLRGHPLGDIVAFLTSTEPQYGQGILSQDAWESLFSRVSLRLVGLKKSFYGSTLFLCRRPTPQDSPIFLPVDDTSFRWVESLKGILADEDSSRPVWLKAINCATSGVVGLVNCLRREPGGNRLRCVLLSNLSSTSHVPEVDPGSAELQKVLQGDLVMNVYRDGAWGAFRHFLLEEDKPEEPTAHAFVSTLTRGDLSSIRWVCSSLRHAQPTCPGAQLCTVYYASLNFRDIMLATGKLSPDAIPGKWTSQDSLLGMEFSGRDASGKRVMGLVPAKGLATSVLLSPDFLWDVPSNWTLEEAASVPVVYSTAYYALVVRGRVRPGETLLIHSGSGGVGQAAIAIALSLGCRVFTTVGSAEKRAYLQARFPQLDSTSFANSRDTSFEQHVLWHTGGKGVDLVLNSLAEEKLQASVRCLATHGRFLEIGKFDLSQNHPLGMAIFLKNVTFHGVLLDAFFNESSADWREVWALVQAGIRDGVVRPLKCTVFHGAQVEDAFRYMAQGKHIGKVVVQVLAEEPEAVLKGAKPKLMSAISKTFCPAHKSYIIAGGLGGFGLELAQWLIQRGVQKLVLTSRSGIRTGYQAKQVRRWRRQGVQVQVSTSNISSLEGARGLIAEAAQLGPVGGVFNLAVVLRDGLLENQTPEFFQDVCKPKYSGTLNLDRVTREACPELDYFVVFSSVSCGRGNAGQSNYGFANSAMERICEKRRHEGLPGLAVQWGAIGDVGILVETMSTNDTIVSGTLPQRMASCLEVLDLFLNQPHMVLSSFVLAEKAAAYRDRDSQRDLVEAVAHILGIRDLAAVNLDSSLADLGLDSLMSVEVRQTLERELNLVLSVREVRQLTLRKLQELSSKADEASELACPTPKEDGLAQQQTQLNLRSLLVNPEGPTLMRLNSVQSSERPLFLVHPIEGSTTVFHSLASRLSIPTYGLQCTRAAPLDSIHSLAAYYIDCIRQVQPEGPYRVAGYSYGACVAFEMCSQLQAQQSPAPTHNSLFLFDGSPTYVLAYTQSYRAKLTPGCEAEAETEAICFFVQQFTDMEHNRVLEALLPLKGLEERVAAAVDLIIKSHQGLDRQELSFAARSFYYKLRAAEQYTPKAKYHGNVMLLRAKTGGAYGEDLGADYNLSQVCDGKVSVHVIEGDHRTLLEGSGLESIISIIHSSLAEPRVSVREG

Structure (SMILES)	IC50 [µM]
CCN(C(=O)n1nnn(-c2ccccc2OC)c1=O)c1ccc(OC)c(C(=O)O)c1	0.25 to 1
CCCCCCN(C(=O)n1nnn(-c2ccccc2OC)c1=O)c1cc(C(=O)OCc2ccccc2)ccc1OC	1 to 10
COc1ccc(C(=O)OCc2ccccc2)cc1N(CCCCc1ccccc1)C(=O)n1nnn(-c2ccccc2OC)c1=O	1 to 10
COc1ccc(C(=O)O)cc1N(CCCCc1ccccc1)C(=O)n1nnn(-c2ccccc2OC)c1=O	0.25 to 1
CN(C(=O)n1nnn(-c2c(F)cccc2F)c1=O)c1ccccc1	0.06 to 0.25
CCCCC#Cc1ccc(N(CC)C(=O)n2nnn(-c3c(F)cccc3F)c2=O)c(F)c1	0.06 to 0.25
CCN(C(=O)n1nnn(-c2c(F)cccc2F)c1=O)c1ccc(C(=O)OCc2ccccc2)c(OC)c1	0.06 to 0.25
COc1ccc(C(=O)O)cc1N(CCCCc1ccccc1)C(=O)n1nnn(-c2c(F)cccc2F)c1=O	0.06 to 0.25
CCN(C(=O)n1nnn(-c2c(F)cccc2F)c1=O)c1ccc(C#Cc2ccccc2)cc1F	0.06 to 0.25
COc1ccc(C(=O)O)cc1N(CCCc1ccccc1)C(=O)n1nnn(-c2c(F)cccc2F)c1=O	0.06 to 0.25
CN(C(=O)n1nnn(-c2c(F)cccc2F)c1=O)c1ccc(Br)cc1	0.06 to 0.25
CC(C)N(C(=O)n1nnn(-c2c(F)cccc2F)c1=O)c1ccccc1	0.06 to 0.25
CN(C(=O)n1nnn(-c2c(F)cccc2F)c1=O)c1cccc(F)c1	0.06 to 0.25
CN(C(=O)n1nnn(-c2c(F)cccc2F)c1=O)c1ccccc1C(F)(F)F	0.06 to 0.25
CCN(C(=O)n1nnn(-c2c(F)cccc2F)c1=O)c1ccc(C#CC(C)(C)C)cc1F	0.06 to 0.25
CCN(C(=O)n1nnn(-c2c(F)cccc2F)c1=O)c1ccc(Cl)cc1Cl	0.06 to 0.25
CN(C(=O)n1nnn(-c2c(F)cccc2F)c1=O)c1ccc(F)cc1	0.06 to 0.25
CCN(C(=O)n1nnn(-c2c(F)cccc2F)c1=O)c1ccc(CCc2ccccc2)cc1F	0.06 to 0.25
CCN(C(=O)n1nnn(-c2c(F)cccc2F)c1=O)c1ccccc1OC(F)(F)F	0.06 to 0.25
CCN(C(=O)n1nnn(-c2c(F)cccc2F)c1=O)c1ccccc1-c1ccccc1	1 to 10

Structure (SMILES)	IC50 [µM]
CCCCC#Cc1ccc(N(C)C(=O)n2nnn(-c3c(F)cccc3F)c2=O)cc1	0.25 to 1
CN(C(=O)n1nnn(-c2c(F)cccc2F)c1=O)c1ccc(C#Cc2ccccc2)cc1	0.06 to 0.25
CCOC(=O)c1ccc(N(C(=O)n2nnn(-c3c(F)cccc3F)c2=O)N(C)C)cc1	0.06 to 0.25
COc1ccccc1N(C)C(=O)n1nnn(-c2c(F)cccc2F)c1=O	0.25 to 1
CCN(C(=O)n1nnn(-c2c(F)cccc2F)c1=O)c1ccc(C#CCC2CCCCC2)cc1F	0.06 to 0.25
CCN(C(=O)n1nnn(-c2c(F)cccc2F)c1=O)c1ccc(Br)cc1F	0.06 to 0.25
CCN(C(=O)n1nnn(-c2c(Cl)cccc2Cl)c1=O)c1cccc(C(=O)O)c1OC	1 to 10
CCN(C(=O)n1nnn(-c2c(Cl)cccc2Cl)c1=O)c1ccc(Cl)c(C(=O)O)c1	0.06 to 0.25
CCN(C(=O)n1nnn(-c2c(Cl)cccc2Cl)c1=O)c1ccc(NS(=O)(=O)C(F)(F)F)cc1	0.06 to 0.25
CCN(C(=O)n1nnn(-c2c(Cl)cccc2Cl)c1=O)c1ccc(Cl)c(C(=O)OCc2ccccc2)c1	0.06 to 0.25
CCN(C(=O)n1nnn(-c2c(Cl)cccc2Cl)c1=O)c1ccc(C(=O)OCc2ccc(OC)cc2)c(Cl)c1	0.06 to 0.25
CCN(C(=O)n1nnn(-c2c(Cl)cccc2Cl)c1=O)c1ccccc1F	0.06 to 0.25
CC(C)N(C(=O)n1nnn(-c2c(Cl)cccc2Cl)c1=O)c1ccccc1	0.25 to 1
CCN(C(=O)n1nnn(-c2c(Cl)cccc2Cl)c1=O)c1cccc(C#N)c1	0.06 to 0.25
CCN(C(=O)n1nnn(-c2c(Cl)cccc2Cl)c1=O)c1ccc(C(=O)O)c(OC)c1	0.06 to 0.25
CCN(C(=O)n1nnn(-c2c(Cl)cccc2Cl)c1=O)c1ccc(C(=O)OCc2ccccc2)c(Cl)c1	0.06 to 0.25
CCN(C(=O)n1nnn(-c2c(Cl)cccc2Cl)c1=O)c1ccc(C(=O)NS(=O)(=O)c2ccccc2)cc1	0.06 to 0.25
CCN(C(=O)n1nnn(-c2c(Cl)cccc2Cl)c1=O)c1cccc(N)c1	0.06 to 0.25
CCN(C(=O)n1nnn(-c2c(Cl)cccc2Cl)c1=O)c1ccc([N+](=O)[O-])cc1	0.06 to 0.25
CCN(C(=O)n1nnn(-c2c(Cl)cccc2Cl)c1=O)c1cccc([N+](=O)[O-])c1	0.06 to 0.25

More lines, now with the values ahead:

IC50 [µM]	Structure (SMILES)
0.06 to 0.25	CCN(C(=O)n1nnn(-c2ccccc2)c1=O)c1ccc(C(=O)O)c(OC)c1
0.06 to 0.25	CCN(C(=O)n1nnn(-c2ccccc2Oc2ccccc2)c1=O)c1ccccc1F
0.06 to 0.25	O=C(N(c1ccccc1)c1ccccc1)n1nnn(-c2ccccc2Oc2ccccc2)c1=O
0.06 to 0.25	CCN(C(=O)n1nnn(-c2ccccc2-c2ccccc2)c1=O)c1ccccc1F
0.06 to 0.25	CCN(C(=O)n1nnn(-c2ccccc2OC)c1=O)c1ccc(C(=O)O)cc1
0.06 to 0.25	CCN(C(=O)n1nnn(-c2ccccc2OC)c1=O)c1cc(C(=O)O)ccc1OC
0.06 to 0.25	COc1cccc(N(C)C(=O)n2nnn(-c3c(F)cccc3F)c2=O)c1
0.06 to 0.25	O=C(N(c1ccccc1)c1ccccc1)n1nnn(-c2c(F)cccc2F)c1=O
0.06 to 0.25	CCN(C(=O)n1nnn(-c2c(F)cccc2F)c1=O)c1ccc(Cl)cc1
0.06 to 0.25	CN(C(=O)n1nnn(-c2c(F)cccc2F)c1=O)c1ccccc1Br
0.06 to 0.25	CCN(C(=O)n1nnn(-c2c(F)cccc2F)c1=O)c1c(F)cccc1Cl
0.06 to 0.25	CN(C(=O)n1nnn(-c2c(F)cccc2F)c1=O)c1ccccc1F
0.06 to 0.25	CN(C(=O)n1nnn(-c2c(F)cccc2F)c1=O)c1cccc(Br)c1
< 0.06	CCN(C(=O)n1nnn(-c2c(F)cccc2F)c1=O)c1cccc(F)c1F
0.06 to 0.25	CCN(C(=O)n1nnn(-c2c(F)cccc2F)c1=O)c1ccc(C)cc1
< 0.06	C=CCN(C(=O)n1nnn(-c2c(F)cccc2F)c1=O)c1ccccc1

IC50 [µM]	Structure (SMILES)
< 0.06	CCN(C(=O)n1nnn(-c2c(F)cccc2F)c1=O)c1cc(F)ccc1F
0.06 to 0.25	CCN(C(=O)n1nnn(-c2c(F)cccc2F)c1=O)c1ccccc1C
0.06 to 0.25	CCN(C(=O)n1nnn(-c2c(F)cccc2F)c1=O)c1ccc(C(=O)OCc2ccccc2)cc1
0.06 to 0.25	CN(C(=O)n1nnn(-c2c(F)cccc2F)c1=O)c1cc(F)cc(F)c1
0.06 to 0.25	CCCN(C(=O)n1nnn(-c2c(F)cccc2F)c1=O)c1ccccc1
< 0.06	CCN(C(=O)n1nnn(-c2c(F)cccc2F)c1=O)c1ccccc1
0.06 to 0.25	CCN(C(=O)n1nnn(-c2c(F)cccc2F)c1=O)c1cccc2ccccc12
0.06 to 0.25	CCN(C(=O)n1nnn(-c2c(F)cccc2F)c1=O)c1ccc([N+](=O)[O-])cc1
< 0.06	CC(C)N(C(=O)n1nnn(-c2c(F)cccc2F)c1=O)c1cccc(C(=O)OCc2ccccc2)c1
< 0.06	CCN(C(=O)n1nnn(-c2c(F)cccc2F)c1=O)c1ccc(C(=O)O)cc1
< 0.06	CCN(C(=O)n1nnn(-c2c(F)cccc2F)c1=O)c1ccc(C(=O)NC(C)C)cc1F
< 0.06	CCN(C(=O)n1nnn(-c2c(F)cccc2F)c1=O)c1ccc(N(S(C)(=O)=O)S(C)(=O)=O)cc1F
< 0.06	CCN(C(=O)n1nnn(-c2c(F)cccc2F)c1=O)c1cccc(C)c1
< 0.06	CCN(C(=O)n1nnn(-c2c(F)cccc2F)c1=O)c1ccccc1[N+](=O)[O-]
< 0.06	CN(C(=O)n1nnn(-c2c(F)cccc2F)c1=O)c1ccccc1Cl
< 0.06	CCN(C(=O)n1nnn(-c2c(Cl)cccc2Cl)c1=O)c1cc(C(=O)O)ccc1Cl

Source: patent US9346769B2, “Tetrazolones as inhibitors of fatty acid synthase” (Infinity Pharmaceuticals, Inc., priority 2010, dated 2016)
